Measured values from paper PMC3399817 (PLoS ONE, 2012).

Assays:
Assay in all cases: KINOMEscan
Format in all cases: binding
MLK1 = target: T1, MLK1 (Homo sapiens, UniProt P80192); details: MLK1, 1 uM
T1 construct: purchased Ambit KINOMEscan (DiscoverX)
Protocol: (§1) First, we used Ambit's KINOMEscan™ technology to identify those kinases that are inhibited for substrate binding by the compounds, all assayed at 1 μM. Second, we used Invitrogen's SelectScreen® Biochemical Kinase Profiling Service to determine the in vitro IC50s for the compounds against specific kinases.

SgK110 = target: T2, SgK110 (Homo sapiens, UniProt P0C264); details: SgK110, 1 uM
T2 construct: purchased Ambit KINOMEscan (DiscoverX)
Protocol: as §1

DAPK3 = target: T3, DAPK3 (Homo sapiens, UniProt O43293); details: DAPK3, 1 uM
T3 construct: purchased Ambit KINOMEscan (DiscoverX)
Protocol: as §1

BMPR1B = target: T4, BMPR1B (Homo sapiens, UniProt O00238); details: 1 uM
T4 construct: purchased Ambit KINOMEscan (DiscoverX)
Protocol: as §1

ABL2 = target: T5, ABL2 (Homo sapiens, UniProt P42684); details: ABL2, 1 uM
T5 construct: purchased Ambit KINOMEscan (DiscoverX)
Protocol: as §1

[1] = target: T6, JAK1(JH1domain-catalytic) (Homo sapiens, UniProt P23458); details: 1 uM
T6 construct: JAK1(JH1domain-catalytic); purchased Ambit KINOMEscan (DiscoverX)
Protocol: as §1

CDKL5 = target: T7, CDKL5 (Homo sapiens, UniProt O76039); details: CDKL5, 1 uM
T7 construct: purchased Ambit KINOMEscan (DiscoverX)
Protocol: as §1

DAPK2 = target: T8, DAPK2 (Homo sapiens, UniProt Q9UIK4); details: DAPK2, 1 uM
T8 construct: purchased Ambit KINOMEscan (DiscoverX)
Protocol: as §1

[2] = target: T9, RPS6KA5(Kin.Dom.2-C-terminal) (Homo sapiens, UniProt O75582); details: 1 uM
T9 construct: RPS6KA5(Kin.Dom.2-C-terminal); purchased Ambit KINOMEscan (DiscoverX)
Protocol: as §1

CSNK1G1 = target: T10, CSNK1G1 (Homo sapiens, UniProt Q9HCP0); details: CSNK1G1, 1 uM
T10 construct: purchased Ambit KINOMEscan (DiscoverX)
Protocol: as §1

EPHA1 = target: T11, EPHA1 (Homo sapiens, UniProt P21709); details: EPHA1, 1 uM
T11 construct: purchased Ambit KINOMEscan (DiscoverX)
Protocol: as §1

DCAMKL3 = target: T12, DCAMKL3 (Homo sapiens, UniProt Q9C098); details: DCAMKL3, 1 uM
T12 construct: purchased Ambit KINOMEscan (DiscoverX)
Protocol: as §1

PIK3C2G = target: T13, PIK3C2G (Homo sapiens, UniProt O75747); details: 1 uM
T13 construct: purchased Ambit KINOMEscan (DiscoverX)
Protocol: as §1

LIMK1 = target: T14, LIMK1 (Homo sapiens, UniProt P53667); details: LIMK1, 1 uM
T14 construct: purchased Ambit KINOMEscan (DiscoverX)
Protocol: as §1

ROCK2 = target: T15, ROCK2 (Homo sapiens, UniProt O75116); details: for % binding compared to no inhibitor control: ROCK2, 1 uM
T15 construct: purchased Ambit KINOMEscan (DiscoverX)
T15 sequence (O75116 whole entry): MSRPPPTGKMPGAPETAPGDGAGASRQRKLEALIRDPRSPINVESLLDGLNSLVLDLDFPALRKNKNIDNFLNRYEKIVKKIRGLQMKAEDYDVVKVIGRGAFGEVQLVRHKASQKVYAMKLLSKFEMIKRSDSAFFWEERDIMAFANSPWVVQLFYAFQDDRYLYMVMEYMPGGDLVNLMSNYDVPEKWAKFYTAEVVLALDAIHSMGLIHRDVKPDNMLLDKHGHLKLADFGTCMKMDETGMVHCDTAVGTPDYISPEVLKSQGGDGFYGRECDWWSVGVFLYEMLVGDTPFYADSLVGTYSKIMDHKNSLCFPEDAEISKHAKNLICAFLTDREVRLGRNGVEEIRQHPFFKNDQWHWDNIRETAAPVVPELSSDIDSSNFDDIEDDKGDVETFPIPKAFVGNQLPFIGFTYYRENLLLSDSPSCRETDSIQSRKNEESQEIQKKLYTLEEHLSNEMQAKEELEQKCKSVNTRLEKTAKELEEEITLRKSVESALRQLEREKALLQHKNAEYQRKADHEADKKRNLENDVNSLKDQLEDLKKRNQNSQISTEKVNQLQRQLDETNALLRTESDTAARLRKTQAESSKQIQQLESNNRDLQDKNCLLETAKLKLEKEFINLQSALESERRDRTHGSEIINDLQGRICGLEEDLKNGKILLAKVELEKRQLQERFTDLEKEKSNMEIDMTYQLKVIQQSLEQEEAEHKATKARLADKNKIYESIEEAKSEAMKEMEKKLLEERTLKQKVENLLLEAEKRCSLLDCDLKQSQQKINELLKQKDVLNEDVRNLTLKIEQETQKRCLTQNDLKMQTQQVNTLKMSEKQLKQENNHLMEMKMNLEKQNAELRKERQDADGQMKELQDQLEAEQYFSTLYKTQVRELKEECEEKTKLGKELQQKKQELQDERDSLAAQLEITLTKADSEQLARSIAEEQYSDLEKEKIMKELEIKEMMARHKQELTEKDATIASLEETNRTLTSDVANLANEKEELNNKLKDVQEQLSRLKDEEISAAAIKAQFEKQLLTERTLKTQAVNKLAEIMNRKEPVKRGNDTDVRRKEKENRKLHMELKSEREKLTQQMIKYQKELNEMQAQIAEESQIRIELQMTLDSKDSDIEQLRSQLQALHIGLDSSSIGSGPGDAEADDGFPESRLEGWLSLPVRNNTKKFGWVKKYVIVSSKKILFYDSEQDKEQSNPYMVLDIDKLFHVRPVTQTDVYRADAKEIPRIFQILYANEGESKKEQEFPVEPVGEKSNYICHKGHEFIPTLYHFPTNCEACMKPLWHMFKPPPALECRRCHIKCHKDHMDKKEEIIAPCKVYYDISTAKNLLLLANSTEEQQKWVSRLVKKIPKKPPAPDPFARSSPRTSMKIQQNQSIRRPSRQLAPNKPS
Protocol: as §1

MINK = target: T16, MINK (Homo sapiens, UniProt Q8N4C8); details: 1 uM
T16 construct: purchased Ambit KINOMEscan (DiscoverX)
Protocol: as §1

CSNK1D = target: T17, CSNK1D (Homo sapiens, UniProt P48730); details: 1 uM
T17 construct: purchased Ambit KINOMEscan (DiscoverX)
Protocol: as §1

INSRR = target: T18, INSRR (Homo sapiens, UniProt P14616); details: 1 uM
T18 construct: purchased Ambit KINOMEscan (DiscoverX)
Protocol: as §1

MAP3K2 = target: T19, MAP3K2 (Homo sapiens, UniProt Q9Y2U5); details: MAP3K2, 1 uM
T19 construct: purchased Ambit KINOMEscan (DiscoverX)
Protocol: as §1

ERBB2 = target: T20, ERBB2 (Homo sapiens, UniProt P04626); details: ERBB2, 1 uM
T20 construct: purchased Ambit KINOMEscan (DiscoverX)
T20 sequence (P04626 23-1255): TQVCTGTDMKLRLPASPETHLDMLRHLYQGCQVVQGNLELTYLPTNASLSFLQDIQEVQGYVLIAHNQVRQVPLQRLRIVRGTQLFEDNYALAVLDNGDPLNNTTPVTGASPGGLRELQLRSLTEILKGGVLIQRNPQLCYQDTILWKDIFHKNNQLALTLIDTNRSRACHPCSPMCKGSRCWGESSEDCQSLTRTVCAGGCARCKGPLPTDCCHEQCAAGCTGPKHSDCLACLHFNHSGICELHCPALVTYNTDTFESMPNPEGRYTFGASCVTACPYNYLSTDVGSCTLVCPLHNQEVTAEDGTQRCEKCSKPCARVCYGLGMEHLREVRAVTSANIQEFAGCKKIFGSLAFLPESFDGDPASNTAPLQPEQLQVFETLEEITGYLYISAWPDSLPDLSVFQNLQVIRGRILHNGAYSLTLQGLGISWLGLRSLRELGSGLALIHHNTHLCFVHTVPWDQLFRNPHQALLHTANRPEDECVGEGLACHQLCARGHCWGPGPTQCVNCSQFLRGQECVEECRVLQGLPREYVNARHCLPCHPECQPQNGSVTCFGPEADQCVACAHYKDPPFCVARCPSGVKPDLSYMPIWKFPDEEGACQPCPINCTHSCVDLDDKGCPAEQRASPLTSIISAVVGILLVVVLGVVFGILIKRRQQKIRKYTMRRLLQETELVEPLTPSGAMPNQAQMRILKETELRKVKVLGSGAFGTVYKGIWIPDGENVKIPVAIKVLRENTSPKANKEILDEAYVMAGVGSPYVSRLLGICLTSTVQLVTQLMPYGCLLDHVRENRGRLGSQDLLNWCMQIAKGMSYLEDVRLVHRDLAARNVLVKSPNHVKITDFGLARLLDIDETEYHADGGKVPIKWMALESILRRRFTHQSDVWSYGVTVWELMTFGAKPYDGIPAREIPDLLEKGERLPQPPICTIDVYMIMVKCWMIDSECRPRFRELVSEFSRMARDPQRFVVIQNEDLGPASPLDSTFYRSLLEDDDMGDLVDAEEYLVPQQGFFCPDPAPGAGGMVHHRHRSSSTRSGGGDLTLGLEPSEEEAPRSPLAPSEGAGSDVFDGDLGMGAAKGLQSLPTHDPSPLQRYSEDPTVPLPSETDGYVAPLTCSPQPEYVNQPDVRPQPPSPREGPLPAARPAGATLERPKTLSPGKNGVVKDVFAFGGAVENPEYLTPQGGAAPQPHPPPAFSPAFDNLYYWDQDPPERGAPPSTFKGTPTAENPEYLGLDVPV
Protocol: as §1

MARK3 = target: T21, MARK3 (Homo sapiens, UniProt P27448); details: MARK3, 1 uM
T21 construct: purchased Ambit KINOMEscan (DiscoverX)
Protocol: as §1

BRAF = target: T22, BRAF (Homo sapiens, UniProt P15056); details: 1 uM
T22 construct: purchased Ambit KINOMEscan (DiscoverX)
Protocol: as §1

PRKCE = target: T23, PRKCE (Homo sapiens, UniProt Q02156); details: 1 uM
T23 construct: purchased Ambit KINOMEscan (DiscoverX)
Protocol: as §1

TEC = target: T24, TEC (Homo sapiens, UniProt P42680); details: 1 uM
T24 construct: purchased Ambit KINOMEscan (DiscoverX)
Protocol: as §1

IGF1R = target: T25, IGF1R (Homo sapiens, UniProt P08069); details: 1 uM
T25 construct: purchased Ambit KINOMEscan (DiscoverX)
T25 sequence (P08069 31-1367): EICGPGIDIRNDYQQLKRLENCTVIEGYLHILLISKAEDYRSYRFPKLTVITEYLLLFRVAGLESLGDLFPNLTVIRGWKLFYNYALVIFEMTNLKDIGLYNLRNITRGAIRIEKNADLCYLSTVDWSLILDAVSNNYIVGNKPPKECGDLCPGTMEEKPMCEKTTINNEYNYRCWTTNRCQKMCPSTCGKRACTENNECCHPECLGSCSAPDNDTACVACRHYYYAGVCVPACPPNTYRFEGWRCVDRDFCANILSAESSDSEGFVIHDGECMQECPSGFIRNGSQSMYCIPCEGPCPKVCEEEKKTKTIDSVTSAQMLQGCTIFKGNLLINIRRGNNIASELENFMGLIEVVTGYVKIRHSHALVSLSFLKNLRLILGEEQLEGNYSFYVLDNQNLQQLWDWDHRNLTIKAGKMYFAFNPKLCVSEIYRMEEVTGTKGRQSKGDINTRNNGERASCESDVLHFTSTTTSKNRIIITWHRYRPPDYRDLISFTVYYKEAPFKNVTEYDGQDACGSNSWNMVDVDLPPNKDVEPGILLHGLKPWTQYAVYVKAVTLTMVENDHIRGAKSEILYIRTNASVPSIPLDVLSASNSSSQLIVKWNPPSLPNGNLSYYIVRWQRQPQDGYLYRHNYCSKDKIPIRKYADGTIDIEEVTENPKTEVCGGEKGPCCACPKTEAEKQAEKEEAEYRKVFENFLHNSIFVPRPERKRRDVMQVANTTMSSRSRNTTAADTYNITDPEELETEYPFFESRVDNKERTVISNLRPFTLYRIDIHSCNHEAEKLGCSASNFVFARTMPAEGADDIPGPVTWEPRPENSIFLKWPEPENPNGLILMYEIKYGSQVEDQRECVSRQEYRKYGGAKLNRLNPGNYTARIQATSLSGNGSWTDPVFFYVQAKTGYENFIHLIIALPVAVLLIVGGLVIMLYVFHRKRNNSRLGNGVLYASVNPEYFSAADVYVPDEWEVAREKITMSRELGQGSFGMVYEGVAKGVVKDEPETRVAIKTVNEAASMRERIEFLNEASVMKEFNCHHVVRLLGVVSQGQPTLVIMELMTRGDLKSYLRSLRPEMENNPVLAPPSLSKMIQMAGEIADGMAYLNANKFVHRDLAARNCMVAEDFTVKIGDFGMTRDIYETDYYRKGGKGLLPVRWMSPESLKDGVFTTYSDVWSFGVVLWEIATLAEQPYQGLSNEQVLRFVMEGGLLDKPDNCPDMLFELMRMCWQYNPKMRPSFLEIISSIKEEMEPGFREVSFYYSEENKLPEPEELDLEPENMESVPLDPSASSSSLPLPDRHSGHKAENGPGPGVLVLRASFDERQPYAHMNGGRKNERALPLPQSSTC
Protocol: as §1

DYRK1A = target: T26, DYRK1A (Homo sapiens, UniProt Q13627); details: 1 uM
T26 construct: purchased Ambit KINOMEscan (DiscoverX)
Protocol: as §1

PIK3CA(M1043I) = target: T27, PIK3CA(M1043I) (Homo sapiens, UniProt P42336, M1043I); details: 1 uM
T27 construct: purchased Ambit KINOMEscan (DiscoverX)
Protocol: as §1

ERK1 = target: T28, ERK1 (Homo sapiens, UniProt P27361); details: ERK1, 1 uM
T28 construct: purchased Ambit KINOMEscan (DiscoverX)
Protocol: as §1

NIM1 = target: T29, NIM1 (Homo sapiens, UniProt Q8IY84); details: NIM1, 1 uM
T29 construct: purchased Ambit KINOMEscan (DiscoverX)
Protocol: as §1

[3] = target: T30, RPS6KA5(Kin.Dom.1-N-terminal) (Homo sapiens, UniProt O75582); details: 1 uM
T30 construct: RPS6KA5(Kin.Dom.1-N-terminal); purchased Ambit KINOMEscan (DiscoverX)
Protocol: as §1

[4] = target: T31, ABL1(H396P)-nonphosphorylated (Homo sapiens, UniProt P00519, H396P); details: 1 uM
T31 construct: purchased Ambit KINOMEscan (DiscoverX)
Protocol: as §1

EGFR(L747-T751del,Sins) = target: T32, EGFR(L747-T751del,Sins) (Homo sapiens, UniProt P00533, DEL747-750/T751S); details: 1 uM
T32 construct: purchased Ambit KINOMEscan (DiscoverX)
Protocol: as §1

KIT(L576P) = target: T33, KIT(L576P) (Homo sapiens, UniProt P10721, L576P); details: 1 uM
T33 construct: purchased Ambit KINOMEscan (DiscoverX)
T33 sequence (P10721 26-976 L576P): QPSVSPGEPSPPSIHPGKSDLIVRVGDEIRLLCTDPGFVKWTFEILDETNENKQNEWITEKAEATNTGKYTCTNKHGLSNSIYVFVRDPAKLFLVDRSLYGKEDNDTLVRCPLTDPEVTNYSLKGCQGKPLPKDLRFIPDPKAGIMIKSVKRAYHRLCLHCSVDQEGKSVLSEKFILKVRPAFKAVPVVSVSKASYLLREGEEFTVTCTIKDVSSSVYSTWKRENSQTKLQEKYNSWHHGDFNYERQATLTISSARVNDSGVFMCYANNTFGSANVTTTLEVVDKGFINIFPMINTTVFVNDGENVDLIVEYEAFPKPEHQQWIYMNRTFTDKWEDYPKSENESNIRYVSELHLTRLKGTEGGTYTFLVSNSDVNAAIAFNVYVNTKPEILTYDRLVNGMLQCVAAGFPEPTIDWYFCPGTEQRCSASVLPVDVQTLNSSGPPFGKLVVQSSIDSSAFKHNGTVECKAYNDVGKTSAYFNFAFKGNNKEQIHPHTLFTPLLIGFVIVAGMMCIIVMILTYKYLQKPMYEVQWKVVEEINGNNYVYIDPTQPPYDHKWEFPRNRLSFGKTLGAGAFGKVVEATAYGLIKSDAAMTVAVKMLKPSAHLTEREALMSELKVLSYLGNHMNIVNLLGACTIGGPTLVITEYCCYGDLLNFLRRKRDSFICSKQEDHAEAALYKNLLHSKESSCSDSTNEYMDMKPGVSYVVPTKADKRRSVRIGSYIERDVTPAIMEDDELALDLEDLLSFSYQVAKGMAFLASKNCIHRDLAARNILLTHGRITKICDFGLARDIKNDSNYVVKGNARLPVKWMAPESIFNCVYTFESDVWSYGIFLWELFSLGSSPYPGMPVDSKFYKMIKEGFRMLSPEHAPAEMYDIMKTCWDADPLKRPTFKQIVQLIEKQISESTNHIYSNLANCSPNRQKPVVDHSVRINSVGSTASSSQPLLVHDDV
Protocol: as §1

PHKG1 = target: T34, PHKG1 (Homo sapiens, UniProt Q16816); details: PHKG1, 1 uM
T34 construct: purchased Ambit KINOMEscan (DiscoverX)
Protocol: as §1

GAK = target: T35, GAK (Homo sapiens, UniProt O14976); details: 1 uM
T35 construct: purchased Ambit KINOMEscan (DiscoverX)
Protocol: as §1

MEK6 = target: T36, MEK6 (Homo sapiens, UniProt P52564); details: MEK6, 1 uM
T36 construct: purchased Ambit KINOMEscan (DiscoverX)
Protocol: as §1

MYO3B = target: T37, MYO3B (Homo sapiens, UniProt Q8WXR4); details: 1 uM
T37 construct: purchased Ambit KINOMEscan (DiscoverX)
Protocol: as §1

MARK4 = target: T38, MARK4 (Homo sapiens, UniProt Q96L34); details: MARK4, 1 uM
T38 construct: purchased Ambit KINOMEscan (DiscoverX)
Protocol: as §1

SMILES | % binding compared to no inhibitor control (MLK1) [%] | % binding compared to no inhibitor control (SgK110) [%] | % binding compared to no inhibitor control (DAPK3) [%] | % binding compared to no inhibitor control (BMPR1B) [%] | % binding compared to no inhibitor control (ABL2) [%] | % binding compared to no inhibitor control [1] [%] | % binding compared to no inhibitor control (CDKL5) [%] | % binding compared to no inhibitor control (DAPK2) [%] | % binding compared to no inhibitor control [2] [%] | % binding compared to no inhibitor control (CSNK1G1) [%] | % binding compared to no inhibitor control (EPHA1) [%] | % binding compared to no inhibitor control (DCAMKL3) [%] | % binding compared to no inhibitor control (PIK3C2G) [%] | % binding compared to no inhibitor control (LIMK1) [%] | % binding compared to no inhibitor control (ROCK2) [%] | % binding compared to no inhibitor control (MINK) [%] | % binding compared to no inhibitor control (CSNK1D) [%] | % binding compared to no inhibitor control (INSRR) [%] | % binding compared to no inhibitor control (MAP3K2) [%] | % binding compared to no inhibitor control (ERBB2) [%] | also measured
COc1ccc(-c2cc3nccn3c(Nc3ncccc3C(N)=O)n2)cc1OC.Cl.Cl [BAY61-3606, 2-[7-(3,4-dimethoxyphenyl)-imidazo [1,2-c]pyrimidin-5-ylamino] nicotinamide dihydrochloride, reference compound] | 100 | 100 | 71 | 77 | 95 | 71 | 60 | 66 | 89 | 84 | 81 | 100 | 23 | 100 | 13 | 62 | 74 | 80 | 55 | 93 | % inhibition ATP binding (ROCK2; ROCK2, KINOMEscan, 1 μM): 87%; % binding compared to no inhibitor control (MARK3): 100%; % binding compared to no inhibitor control (BRAF): 90%; % binding compared to no inhibitor control (PRKCE): 30%; % binding compared to no inhibitor control (TEC): 100%; % binding compared to no inhibitor control (IGF1R): 97%; % binding compared to no inhibitor control (DYRK1A): 24%; % binding compared to no inhibitor control (PIK3CA(M1043I)): 80%; % binding compared to no inhibitor control (ERK1): 100%; % binding compared to no inhibitor control (NIM1): 88%; % binding compared to no inhibitor control [3]: 90%; % binding compared to no inhibitor control [4]: 96%; % binding compared to no inhibitor control (EGFR(L747-T751del,Sins)): 80%; % binding compared to no inhibitor control (KIT(L576P)): 0.4%; % binding compared to no inhibitor control (PHKG1): 79%; % binding compared to no inhibitor control (GAK): 30%; % binding compared to no inhibitor control (MEK6): 40%; % binding compared to no inhibitor control (MYO3B): 72%; % binding compared to no inhibitor control (MARK4): 88%
COc1ccccc1Nc1nc(-c2ccc(OC)c(OC)c2)cc2nccn12 [BAY derivative 6] | 100 | 100 | 100 | 100 | 93 | 48 | 100 | 100 | 97 | 94 | 81 | 100 | 100 | 91 | 96 | 100 | 100 | 91 | 88 | 71 | % binding compared to no inhibitor control (MARK3): 100%; % binding compared to no inhibitor control (BRAF): 100%; % binding compared to no inhibitor control (PRKCE): 100%; % binding compared to no inhibitor control (TEC): 100%; % binding compared to no inhibitor control (IGF1R): 79%; % binding compared to no inhibitor control (DYRK1A): 100%; % binding compared to no inhibitor control (PIK3CA(M1043I)): 100%; % binding compared to no inhibitor control (ERK1): 100%; % binding compared to no inhibitor control (NIM1): 100%; % binding compared to no inhibitor control [3]: 89%; % binding compared to no inhibitor control [4]: 92%; % binding compared to no inhibitor control (EGFR(L747-T751del,Sins)): 89%; % binding compared to no inhibitor control (KIT(L576P)): 38%; % binding compared to no inhibitor control (PHKG1): 100%; % binding compared to no inhibitor control (GAK): 43%; % binding compared to no inhibitor control (MEK6): 97%; % binding compared to no inhibitor control (MYO3B): 100%; % binding compared to no inhibitor control (MARK4): 75%
